The text below walks through data of article PMC9715518, “Human and rat microsomal metabolites of N-tert-butoxycarbonylmethamphetamine and its urinary metabolites in rat” (Forensic Toxicology, 2021).

A short description of data set [1]: Rat administration test, urinary excretion. Conditions: for Detection in rat urine (LC–QToF–MS): urine 0–72 h, n = 3; for Detection in rat urine (LC–QToF–MS) / M1–D1 absolute amount in urine after hydrolysis / M1–D1 concentration in urine after hydrolysis / M1–D1 concentration in urine before hydrolysis / M1–D2 absolute amount in urine after hydrolysis / M1–D2 concentration in urine after hydrolysis / M1–D2 concentration in urine before hydrolysis: BocMA 20 mg/kg i.p.

Data set [2] can be described thus: Microsomal metabolism test, rat liver microsomes. As to conditions: for Detection after incubation of BocMA (LC–QToF–MS): RLM incubation of BocMA; for Incubation time at which peak intensity was highest: RLM test; for Share of the degraded products detected as this metabolite: RLM, first 3 min. On the technique in general: Microsomes from liver hold many membrane-bound enzymes, among them those of drug oxidation.

Data set [3] can be described thus: Microsomal metabolism test, human liver microsomes. Conditions: for Detection after incubation of BocMA (LC–QToF–MS): HLM incubation of BocMA; for Share of the degraded products detected as this metabolite: HLM, first 8 min.
The conditions of data set [4]: within 3–4 days; cited from earlier work.

For the molecule `CC(NC(=O)OC(C)(C)COC1OC(C(=O)O)C(O)C(O)C1O)C(=O)c1ccccc1` (centres unmarked) [M9], in data set [1] (rat urine), the “Urine collection interval with the highest ion peak intensity” value fell in the range of 4 to 8 h. Also, the “Detection in rat urine (LC–QToF–MS)” value in data set [1] is “detected in all rat urine collected until 72 h”.
On to `CC(NC(=O)OC(C)(C)C)C(O)c1ccccc1` (centres unmarked) [Boc-protected nor-ephedrine], for which the “Detection after incubation of BocMA (LC–QToF–MS)” value (“Detection after incubation” for short) in data set [2] and in data set [3] was “not detected” throughout.
As to `CC(NC(=O)OC(C)(C)C)C(=O)c1ccccc1` (centres unmarked) [M4, N-tert-butoxycarbonyl-2-amino-1-phenylpropan-1-one], the “Detection in rat urine (LC–QToF–MS)” value in data set [1] is listed as “not detected”. For the same molecule, in data set [2], the “Detection after incubation” value is given as “detected” and the “Incubation time at which peak intensity was highest” value (“Incubation time” below) is given as 20 min. In data set [3], the “Detection after incubation” value is “produced”.
With `CN[C@@H](C)Cc1ccccc1` [MA, Methamphetamine], the “Share of the administered amount excreted in urine” value in data set [4] was “about 80%”. The “Detection in rat urine (LC–QToF–MS)” value in data set [1] is “not detected”. Further, the “Detection after incubation” value in data set [2] and in data set [3] was “not detected” throughout.
In the case of `CC(C(O)c1ccccc1)N(C)C(=O)OC(C)(C)C` (centres unmarked) [M1], in data set [1] (in vivo, rat urine), the “M1 diastereomer ratio (R = M1–D1/M1–D2)” value is on record as at least 1. In data set [1], the “Detection in rat urine (LC–QToF–MS)” value is “detected in urine from all rats”. In addition, the “Incubation time” value in data set [2] stood at 3 min. Moreover, the “Share of the degraded products detected as this metabolite” value (from here on “Share of the degraded products detected”) in data set [2] is 45%; in data set [2] (listed as M1 (D1, 2)), around 45%; in data set [3] it was 14%.
`CC(N)Cc1ccc(O)cc1` (centres unmarked) [4OHAP, 4-hydroxy amphetamine, reference compound]: the “Detection in rat urine (LC–QToF–MS)” value in data set [1] is “not detected”. Moreover, the “Detection after incubation” value in data set [2] and in data set [3] was “not detected” throughout.
Regarding `CC(Cc1ccccc1)NC(=O)OC(C)(C)C` (centres unmarked) [M2, N-tert-butoxycarbonylamphetamine], the “Detection in rat urine (LC–QToF–MS)” value in data set [1] is listed as “not detected”. Further, in data set [3], the “Detection after incubation” value is “produced”.
As to `C[C@@H](Cc1ccc(O)cc1)N(C)C(=O)OC(C)(C)C` [M3, N-tert-butoxycarbonyl-4-hydroxymethamphetamine], the “Detection in rat urine (LC–QToF–MS)” value in data set [1] is “trace amount of M3 was detected only in the urine collected during 0–4 h from Rat No. 3”. Besides, the “Detection after incubation” value in data set [3] is “produced”.
Turning to `CC(C(O)c1ccccc1)N(C)C(=O)OC(C)(C)C` (single isomer, unassigned) [M1–D1, N-tert-butoxycarbonylephedrine], the “M1–D1 absolute amount in urine after hydrolysis” value (from here on “M1–D1 absolute amount in urine”) in data set [1] (rat no. 1, urine 0–4 h) was 0.69 ng; in data set [1] (rat no. 1, urine 0–72 h total), 57 ng; in data set [1] (rat no. 1, urine 4–8 h), 54 ng; in data set [1] (rat no. 2, urine 0–4 h), 10 ng; in data set [1] (rat no. 2, urine 0–72 h total) it was 260 ng; in data set [1] (rat no. 2, urine 4–8 h), 180 ng. In addition, the “M1–D1 absolute amount in urine” value came to 72 ng in data set [1] (rat no. 2, urine 8–24 h); 70 ng in data set [1] (rat no. 3, urine 0–4 h); 1500 ng in data set [1] (rat no. 3, urine 0–72 h total); 440 ng in data set [1] (rat no. 3, urine 4–8 h); 860 ng in data set [1] (rat no. 3, urine 8–24 h); 88 ng in data set [1] (rat no. 3, urine 24–48 h). Also, the “M1–D1 absolute amount in urine” value in data set [1] (rat no. 3, urine 48–72 h) amounted to 6.4 ng. Besides, the “M1–D1 concentration in urine after hydrolysis” value in data set [1] (rat no. 1, urine 0–4 h) stood at 0.46 ng/mL; in data set [1] (rat no. 1, urine 4–8 h), 54 ng/mL; in data set [1] (rat no. 2, urine 0–4 h) it was 5.2 ng/mL; in data set [1] (rat no. 2, urine 4–8 h), 89 ng/mL; in data set [1] (rat no. 2, urine 8–24 h), 4.8 ng/mL; in data set [1] (rat no. 3, urine 0–4 h), 140 ng/mL. The “M1–D1 concentration in urine after hydrolysis” value came to 220 ng/mL in data set [1] (rat no. 3, urine 4–8 h); 86 ng/mL in data set [1] (rat no. 3, urine 8–24 h); 11 ng/mL in data set [1] (rat no. 3, urine 24–48 h); 0.71 ng/mL in data set [1] (rat no. 3, urine 48–72 h). For the same molecule, the “M1–D1 concentration in urine before hydrolysis” value is on record as 0.47 ng/mL in data set [1] (rat no. 1, urine 0–4 h); 0.51 ng/mL in data set [1] (rat no. 1, urine 4–8 h); 6.5 ng/mL in data set [1] (rat no. 2, urine 0–4 h); 3.0 ng/mL in data set [1] (rat no. 2, urine 4–8 h); 3.0 ng/mL in data set [1] (rat no. 2, urine 8–24 h); 50 ng/mL in data set [1] (rat no. 3, urine 0–4 h). Further, the “M1–D1 concentration in urine before hydrolysis” value in data set [1] (rat no. 3, urine 4–8 h) was 3.2 ng/mL. Also, the “Detection after incubation” value in data set [2] is “detected”; in data set [3], “produced”. For the same molecule, the “Share of the degraded products detected” value in data set [2] was found to be 5%; in data set [3], 10%.
Turning to `CC(C(=O)c1ccccc1)N(C)C(=O)OC(C)(C)C` (centres unmarked) [BocMC, N-tert-butoxycarbonyl-2-(methylamino)-1-phenylpropan-1-one, reference compound], the “Detection after incubation” value in data set [2] and in data set [3] was “not detected” throughout.
`C[C@H](NC(=O)OC(C)(C)CO)C(=O)c1ccccc1` [M5]: the “Urine collection interval with the highest ion peak intensity” value in data set [1] (rat urine) lay within 4 to 8 h. Besides, the “Increase of peak intensity after hydrolysis” value in data set [1] (rat urine, β-glucuronidase hydrolysis) was “approximately tenfold”. In data set [1], the “Detection in rat urine (LC–QToF–MS)” value is reported as “detected in urine from all rats”. Also, in data set [2], the “Detection after incubation” value is reported as “detected” and the “Incubation time” value was 60 min. In addition, the “Detection after incubation” value in data set [3] is on record as “produced”.
Turning to `CC(C(O)c1ccccc1)N(C)C(=O)OC(C)(C)C` (single isomer, unassigned) [M1–D2, N-tert-butoxycarbonylpseudoephedrine], the “M1–D2 absolute amount in urine after hydrolysis” value worked out at 85 ng in data set [1] (average of 3 rats, urine 0–72 h total); 7.8 ng in data set [1] (rat no. 1, urine 0–4 h); 43 ng in data set [1] (rat no. 1, urine 0–72 h total); 35 ng in data set [1] (rat no. 1, urine 4–8 h); 24 ng in data set [1] (rat no. 2, urine 0–4 h); 52 ng in data set [1] (rat no. 2, urine 0–72 h total). Besides, the “M1–D2 absolute amount in urine after hydrolysis” value in data set [1] (rat no. 2, urine 4–8 h) worked out at 28 ng; in data set [1] (rat no. 3, urine 0–4 h) it was 50 ng; in data set [1] (rat no. 3, urine 0–72 h total) it was 160 ng; in data set [1] (rat no. 3, urine 4–8 h), 66 ng; in data set [1] (rat no. 3, urine 8–24 h) it was 42 ng. Also, the “M1–D2 concentration in urine after hydrolysis” value in data set [1] (rat no. 1, urine 0–4 h) is 5.2 ng/mL; in data set [1] (rat no. 1, urine 4–8 h) it was 35 ng/mL; in data set [1] (rat no. 2, urine 0–4 h), 12 ng/mL; in data set [1] (rat no. 2, urine 4–8 h), 14 ng/mL; in data set [1] (rat no. 3, urine 0–4 h), 100 ng/mL; in data set [1] (rat no. 3, urine 4–8 h) it was 33 ng/mL. Besides, in data set [1] (rat no. 3, urine 8–24 h), the “M1–D2 concentration in urine after hydrolysis” value was determined as 4.2 ng/mL. Further, the “M1–D2 concentration in urine before hydrolysis” value in data set [1] (rat no. 1, urine 0–4 h) is recorded as 1.5 ng/mL; in data set [1] (rat no. 1, urine 4–8 h), 0.67 ng/mL; in data set [1] (rat no. 2, urine 0–4 h) it was 12 ng/mL; in data set [1] (rat no. 2, urine 4–8 h), 1.0 ng/mL; in data set [1] (rat no. 3, urine 0–4 h) it was 8.1 ng/mL; in data set [1] (rat no. 3, urine 4–8 h), 1.5 ng/mL. Moreover, the “Detection after incubation” value in data set [2] is “detected”; in data set [3], “produced”. Also, the “Share of the degraded products detected” value came out at 40% in data set [2] and 4% in data set [3].
On to `CC1N(C)C(O)(OC(C)(C)C)OC1(O)c1ccccc1` (centres unmarked) [M6], for which, in data set [1], the “Detection in rat urine (LC–QToF–MS)” value is listed as “not detected”. In data set [2], the “Detection after incubation” value is reported as “detected” and the “Incubation time” value worked out at 13 min. Also, in data set [3], the “Detection after incubation” value is recorded as “produced”.
As to `CC(N)Cc1ccccc1` (centres unmarked) [AP, amphetamine], in data set [1], the “Detection in rat urine (LC–QToF–MS)” value was “not detected”. Moreover, the “Detection after incubation” value in data set [2] is recorded as “not detected”.
For `CNC(C)Cc1ccc(O)cc1` (centres unmarked) [4OHMA, 4-hydroxy methamphetamine, reference compound], in data set [1], the “Detection in rat urine (LC–QToF–MS)” value is “not detected”. Besides, the “Detection after incubation” value in data set [2] and in data set [3] was “not detected” throughout.
